# Measured values taken from publication PMC3943701 (Biochimica et biophysica acta, 2013).
# Entries after “also recorded” stand apart in the source; their conditions may differ. Like-named read-outs stand apart in the source and are kept apart here.
# Experiments:
# influenza A/M2 protein = details: sensitive circulating influenza strains; ref [2], [3]; cited from earlier work
# M2 His37 = details: addition of amantadine; ref [17]; cited from earlier work
# [1] = test system: M2(19–62) wild type construct; type: biochemical, influenza A virus (A/Udorn/72); details: liposomes pre-mixed with amantadine HCl 3 h, 18°C
# [2] = test system: M2(19–62) thiazolylalanine construct; type: biochemical, influenza A virus (A/Udorn/72); details: pH 2.4
# [3] = in solution, no reference given, cited from earlier work
SMILES,inhibition of M2 proton transport (in words) (influenza A/M2 protein),"effect on His37 ring flip, protonation and deprotonation (in words) (M2 His37)",inhibitory effect of amantadine on flux (in words) ([1]; bathing buffer pH 2.4),amantadine sensitivity of flux (in words) ([1]; bathing buffer pH 7.4 and 4.9),amantadine inhibition of currents (in words) [2],solution pKa of side chain [3],solution pKa of side chain ([3]; listed as imidazole)
NC12CC3CC(CC(C3)C1)C2 [amantadine],inhibited,significantly inhibited,No inhibitory effect; also recorded: begins to be lost,amantadine-sensitive,robust amantadine inhibition,–,–
N[C@@H](Cc1c[nH]cn1)C(=O)O [histidine],–,–,–,–,–,6.5,~ 6.5
CC(N)C12CC3CC(CC(C3)C1)C2 (centres unmarked) [rimantadine],inhibited,–,–,–,–,–,–
